Assay results as given in patent publication US12303497B2, “Anti-androgens for the treatment of metastatic castration-sensitive prostate cancer” (priority 2019, dated 2025).

Test system: patients with metastatic castration-sensitive prostate cancer (mCSPC)

CNC(=O)c1ccc(N2C(=S)N(c3cnc(C#N)c(C(F)(F)F)c3)C(=O)C23CCC3)cc1F [Apalutamide, 4-[7-(6-cyano-5-trifluoromethylpyridin-3-yl)-8-oxo-6-thioxo-5,7-diazaspiro[3.4]oct-5-yl]-2-fluoro-N-methylbenzamide]
AE leading to dose interruption: Hyponatremia (All Grades): 1 (0.2) no. (%)
AE leading to dose interruption: Infections (All Grades): 6 (1.1) no. (%)
AE leading to dose interruption: Influenza-like illness (All Grades): 1 (0.2) no. (%)
AE leading to dose interruption: Insomnia (All Grades): 3 (0.6) no. (%)
AE leading to dose interruption: Ischemic cardiac events (All Grades): 1 (0.2) no. (%)
AE leading to dose interruption: Large intestinal ulcer perforation (All Grades): 1 (0.2) no. (%)
AE leading to dose interruption: Mental status changes (All Grades): 1 (0.2) no. (%)
AE leading to dose interruption: Muscular weakness (All Grades): 1 (0.2) no. (%)
AE leading to dose interruption: Musculoskeletal stiffness (All Grades): 0 no. (%)
AE leading to dose interruption: Nausea (All Grades): 1 (0.2) no. (%)
AE leading to dose interruption: Neutropenia (All Grades): 2 (0.4) no. (%)
AE leading to dose interruption: New cancer neoplasm (All Grades): 3 (0.6) no. (%)
AE leading to dose interruption: Osteoarthritis (All Grades): 0 no. (%)
AE leading to dose interruption: Osteoporosis (All Grades): 1 (0.2) no. (%)
AE leading to dose interruption: Pain (grouped term) (All Grades): 9 (1.7) no. (%)
AE leading to dose interruption: Pathological fracture (All Grades): 0 no. (%)
AE leading to dose interruption: Peripheral edema (All Grades): 1 (0.2) no. (%)
AE leading to dose interruption: Peripheral swelling (All Grades): 0 no. (%)
AE leading to dose interruption: Proctalgia (All Grades): 1 (0.2) no. (%)
AE leading to dose interruption: Pyrexia (All Grades): 3 (0.6) no. (%)
AE leading to dose interruption: Rash (grouped term) (All Grades): 44 (8.4) no. (%)
AE leading to dose interruption: Renal injury (All Grades): 0 no. (%)
AE leading to dose interruption: Rheumatoid arthritis (All Grades): 1 (0.2) no. (%)
AE leading to dose interruption: Seizure (All Grades): 1 (0.2) no. (%)
AE leading to dose interruption: Spinal cord compression (All Grades): 1 (0.2) no. (%)
AE leading to dose interruption: Stomatitis (All Grades): 1 (0.2) no. (%)
AE leading to dose interruption: Subarachnoid hematoma (All Grades): 1 (0.2) no. (%)
AE leading to dose interruption: Subarachnoid hemorrhage (All Grades): 1 (0.2) no. (%)
AE leading to dose interruption: Subdural hemorrhage (All Grades): 0 no. (%)
AE leading to dose interruption: Syncope (All Grades): 1 (0.2) no. (%)
AE leading to dose interruption: Thrombocytopenia (All Grades): 1 (0.2) no. (%)
AE leading to dose interruption: Tongue ulceration (All Grades): 1 (0.2) no. (%)
AE leading to dose interruption: Urethral stenosis (All Grades): 0 no. (%)
AE leading to dose interruption: Urinary incontinence (All Grades): 1 (0.2) no. (%)
AE leading to dose interruption: Urinary retention (All Grades): 2 (0.4) no. (%)
AE leading to dose interruption: Urinary tract obstruction (All Grades): 1 (0.2) no. (%)
AE leading to dose interruption: Vertigo (All Grades): 1 (0.2) no. (%)
AE leading to dose interruption: Vomiting (All Grades): 3 (0.6) no. (%)
AE leading to dose interruption: Weight increased (All Grades): 0 no. (%)
AE leading to dose reduction: Aspartate aminotransferase or alanine aminotransferase increased (All Grades): 0 no. (%)
AE leading to dose reduction: Asthenia (All Grades): 0 no. (%)
AE leading to dose reduction: Cognitive disorder (All Grades): 1 (0.2) no. (%)
AE leading to dose reduction: Dehydration (All Grades): 1 (0.2) no. (%)
AE leading to dose reduction: Fatigue (All Grades): 2 (0.4) no. (%)
AE leading to dose reduction: General physical health deterioration (All Grades): 1 (0.2) no. (%)
AE leading to dose reduction: Headache (All Grades): 1 (0.2) no. (%)
AE leading to dose reduction: Hot flush (All Grades): 1 (0.2) no. (%)
AE leading to dose reduction: Hypertension (All Grades): 1 (0.2) no. (%)
AE leading to dose reduction: Lethargy (All Grades): 0 no. (%)
AE leading to dose reduction: Neutropenia (All Grades): 2 (0.4) no. (%)
AE leading to dose reduction: Pain (All Grades): 1 (0.2) no. (%)
AE leading to dose reduction: Performance status decreased (All Grades): 0 no. (%)
AE leading to dose reduction: Rash (grouped term) (All Grades): 28 (5.3) no. (%)
AE leading to dose reduction: Vertigo (All Grades): 1 (0.2) no. (%)
AE leading to dose reduction: Weight decreased (All Grades): 1 (0.2) no. (%)
AE of special interest: Fall (All Grades): 39 (7.4) no. (%)
AE of special interest: Fracture (grouped term) (All Grades): 33 (6.3) no. (%)
AE of special interest: Hypothyroidism (grouped term) (All Grades): 34 (6.5) no. (%)
AE of special interest: Rash (grouped term) (All Grades): 142 (27.1) no. (%)
AE of special interest: Seizure (grouped term) (All Grades): 3 (0.6) no. (%)
Patients with treatment-emergent adverse events leading to discontinuation (All Grades): 42 (8.0) no. (%)
Patients with treatment-emergent adverse events leading to dose reduction (All Grades): 37 (7.1) no. (%)
Patients with treatment-emergent events leading to dose interruption (All Grades): 104 (19.8) no. (%)
TEAE: Anemia (All Grades): 48 (9.2) no. (%)
TEAE: Arthralgia (All Grades): 91 (17.4) no. (%)
TEAE: Asthenia (All Grades): 37 (7.1) no. (%)
TEAE: Back pain (All Grades): 91 (17.4) no. (%)
TEAE: Blood alkaline phosphatase increased (All Grades): 16 (3.1) no. (%)
TEAE: Bone pain (All Grades): 34 (6.5) no. (%)
TEAE: Constipation (All Grades): 47 (9.0) no. (%)
TEAE: Fatigue (All Grades): 103 (19.7) no. (%)
TEAE: Hot flush (All Grades): 119 (22.7) no. (%)
TEAE: Hypertension (All Grades): 93 (17.7) no. (%)
TEAE: Pain in extremity (All Grades): 64 (12.2) no. (%)
TEAE: Pruritus (All Grades): 56 (10.7) no. (%)
TEAE: Rash generalized (All Grades): 34 (6.5) no. (%)
TEAE: Urinary retention (All Grades): 13 (2.5) no. (%)
TEAE: Weight increased (All Grades): 54 (10.3) no. (%)
AE leading to discontinuation: Alanine aminotransferase increased (Grade ≥3): 0 no. (%)
AE leading to discontinuation: Anxiety (Grade ≥3): 0 no. (%)
AE leading to discontinuation: Atrial fibrillation (Grade ≥3): 1 (0.2) no. (%)
AE leading to discontinuation: Cardiac failure (Grade ≥3): 0 no. (%)
AE leading to discontinuation: Cardio-respiratory arrest (Grade ≥3): 1 (0.2) no. (%)
AE leading to discontinuation: Cardiogenic shock (Grade ≥3): 1 (0.2) no. (%)
AE leading to discontinuation: Cerebrovascular disorder (Grade ≥3): 1 (0.2) no. (%)
AE leading to discontinuation: Cognitive disorder (Grade ≥3): 0 no. (%)
AE leading to discontinuation: Dehydration (Grade ≥3): 0 no. (%)
AE leading to discontinuation: Dyspnea (Grade ≥3): 0 no. (%)
AE leading to discontinuation: Euphoric mood (Grade ≥3): 0 no. (%)
AE leading to discontinuation: Fatigue (Grade ≥3): 1 (0.2) no. (%)
AE leading to discontinuation: Hot flush (Grade ≥3): 0 no. (%)
AE leading to discontinuation: Hypothermia (Grade ≥3): 0 no. (%)
AE leading to discontinuation: Infections (Grade ≥3): 1 (0.2) no. (%)
AE leading to discontinuation: Intracranial hemorrhage (Grade ≥3): 0 no. (%)
AE leading to discontinuation: Ischemic cardiac events (Grade ≥3): 2 (0.4) no. (%)
AE leading to discontinuation: Large intestinal ulcer perforation (Grade ≥3): 1 (0.2) no. (%)
